Source: patent US6414030B1, “Use of benzenesulfonyl(thio)ureas for the treatment and prophylaxis of dysfunctions of the autonomous nervous system and use of benzenesulfonyl(thio)ureas in combination with beta-receptors blockers” (Aventis Pharma Deutschland, GmbH, priority 1998, dated 2002)
Marks after values point to notes of the source that are not given here.

Tests used:
[1] = system: chloroform-induced ventricular fibrillation in the mouse; assay: Chloroform-induced ventricular fibrillation in the mouse (effect on vagal dysfunction), without and with atropine; assay type: in vivo; settings: n = 10, untreated control 100%; for Proportion of fibrillation (in %) with atropine (1 mg/kg i.v.): plus atropine 1 mg/kg i.v.
Protocol: The substances were investigated using the model of chloroform-induced ventricular fibrillation in the mouse (see J. W. Lawson, Antiarrhythmic activity of some isoquinoline derivatives determined by a rapid screening procedure in the mouse; J. Pharmacol. Exp. Ther. 1968, 160, 22-31). […] After 30 minutes, the mouse was anesthetized with chloroform in a beaker. As soon as, in deep anesthesia, respiratory arrest had occurred (toxic anesthesia stage), the thorax of the animal was opened using a pair of scissors and the heartbeat was inspected visually. Here, it is possible to determine on first sight whether the heart is beating, fibrillating or arrested. The respiratory arrest triggered by chloroform leads, via absolute anoxia (lack of oxygen) in combination with a direct stimulating effect of chloroform on the sympathetic nervous system, to a potent stimulation of the sympathicus, which in turn in combination with the energy deficit in the heart caused by lack of oxygen results in fatal arrhythmia, i.e. ventricular fibrillation. This toxic chloroform anesthesia led to ventricular fibrillation in 100% of the untreated mice (control).

[2] = system: chloroform-induced ventricular fibrillation in the mouse; assay: Chloroform-induced ventricular fibrillation in the mouse: combinations of compounds of the formula I with beta-receptor blockers; assay type: in vivo; settings: n = 30, untreated control 100%
Protocol: The substances were investigated using the model of chloroform-induced ventricular fibrillation in the mouse (see J. W. Lawson, Antiarrhythmic activity of some isoquinoline derivatives determined by a rapid screening procedure in the mouse; J. Pharmacol. Exp. Ther. 1968, 160, 22-31). The test substance was dissolved in a mixture of dimethyl sulfoxide (DMSO) and 10% strength sodium bicarbonate solution and administered intraperitoneally (i.p.). After 30 minutes, the mouse was anesthetized with chloroform in a beaker. As soon as, in deep anesthesia, respiratory arrest had occurred (toxic anesthesia stage), the thorax of the animal was opened using a pair of scissors and the heartbeat was inspected visually. Here, it is possible to determine on first sight whether the heart is beating, fibrillating or arrested. The respiratory arrest triggered by chloroform leads, via absolute anoxia (lack of oxygen) in combination with a direct stimulating effect of chloroform on the sympathetic nervous system, to a potent stimulation of the sympathicus, which in turn in combination with the energy deficit in the heart caused by lack of oxygen results in fatal arrhythmia, i.e. ventricular fibrillation. This toxic chloroform anesthesia led to ventricular fibrillation in 100% of the untreated mice (control).
The active compounds were administered i.v. (intravenously) or i.p. (intraperitoneally). In one experiment, 10 mg/kg of 1-[[5-[2-(5-chloro-2-methoxybenzamido)ethyl]-2-methoxyphenyl]sulfonyl]-3-methylthiourea sodium salt (see Example 4; dissolved in DMSO/10% strength sodium bicarbonate solution) were combined with 0.3 mg/kg of propanolol (dissolved in distilled water), a standard beta-blocker. […] The proportion of fibrillation could be lowered further than with the individual substances, in a statistically significant manner. For comparison, a 10 times higher dose of 3 mg/kg of propanolol was used. […] In another experiment, 3 mg/kg of 1-[[5-[2-(5-tert-butyl-2-methoxybenzamido)ethyl]-2-methoxyphenyl]sulfonyl]-3-methylthiourea (Example 1) and 3 mg/kg of atenolol were combined in an analogous manner.

[3] = 3 mg/kg i.p., chloroform anesthesia after 30 minutes

CNC(=S)NS(=O)(=O)c1cc(CCNC(=O)c2cc(Cl)ccc2OC)ccc1OC.[Na] [1-[[5-[2-(5-chloro-2-methoxybenzamido)ethyl]-2-methoxyphenyl]sulfonyl]-3-methylthiourea sodium salt]
Proportion of fibrillation (in %) without atropine ([1]; 10 mg/kg i.p.): 50%#
Proportion of fibrillation (in %) with atropine (1 mg/kg i.v.) ([1]; 10 mg/kg i.p.): 90%*
Proportion of fibrillation in % ([2]; single substance 10 mg/kg i.v.): 50%*

CNC(=S)NS(=O)(=O)c1cc(CCNC(=O)c2cc(C(C)(C)C)ccc2OC)ccc1OC [Example 1, 1-[[5-[2-(5-tert-Butyl-2-methoxybenzamido)ethyl]-2-methoxyphenyl]sulfonyl]-3-methylthiourea]
Proportion of fibrillation (in %) without atropine [1, 3]: 30%#
Proportion of fibrillation (in %) with atropine (1 mg/kg i.v.) ([1]; 3 mg/kg i.p.): 90%*
Proportion of fibrillation in % ([2]; single substance 3 mg/kg i.p.): 53%*

CNC(=O)NS(=O)(=O)c1cc(CCNC(=O)c2cc(C(C)(C)C)ccc2OC)ccc1OC [Example 2, 1-[[5-[2-(5-tert-Butyl-2-methoxybenzamido)ethyl]-2-methoxyphenyl]sulfonyl]-3-methylurea]
Proportion of fibrillation (in %) without atropine ([1]; 1 mg/kg i.p.): 60%#
Proportion of fibrillation (in %) with atropine (1 mg/kg i.v.) ([1]; 1 mg/kg i.p.): 100%*

CNC(=S)NS(=O)(=O)c1cc(CCNC(=O)c2cc(C(C)C)ccc2OC)ccc1OC [Example 3, 1-[[5-[2-(5-lsopropyl-2-methoxybenzamido)ethyl]-2-methoxyphenyl]sulfonyl]-3-methylthiourea]
Proportion of fibrillation (in %) without atropine [1, 3]: 60%#

CNC(=S)NS(=O)(=O)c1cc(CCNC(=O)c2cc(Cl)ccc2OC)ccc1OCCOC [Example 5, 1-[[5-[2-(5-Chloro-2-methoxybenzamido)ethyl]-2-(2-methoxyethoxy)phenyl]sulfonyl]-3-methylthiourea]
Proportion of fibrillation (in %) without atropine ([1]; 10 mg/kg i.p.): 60%#
Proportion of fibrillation (in %) with atropine (1 mg/kg i.v.) ([1]; 10 mg/kg i.p.): 100%*

CC(C)NCC(O)COc1ccc(CC(N)=O)cc1 (stereo not drawn) [atenolol]
Proportion of fibrillation in % ([2]; single substance 3 mg/kg i.v.): 48%*

C[N+](C)(C)CCOC(N)=O [carbachol, reference compound]
Proportion of fibrillation (in %) without atropine ([1]; 60 μg/kg i.v.): 60%#
Proportion of fibrillation (in %) with atropine (1 mg/kg i.v.) ([1]; 60 μg/kg i.v.): 100%*

CNC(=O)Oc1ccc2c(c1)[C@]1(C)CCN(C)[C@@H]1N2C [physostigmine, reference compound]
Proportion of fibrillation (in %) without atropine ([1]; 1 mg/kg s.c.): 70%#
Proportion of fibrillation (in %) with atropine (1 mg/kg i.v.) ([1]; 1 mg/kg s.c.): 100%*

CC(C)NCC(O)COc1cccc2ccccc12 (stereo not drawn) [propranolol]
Proportion of fibrillation in % ([2]; single substance 0.3 mg/kg i.v.): 37%*
Proportion of fibrillation in % ([2]; single substance 3 mg/kg i.v.): 17%*
